From PMC7306898, “Concentration-Dependent Activity of Hydromethylthionine on Clinical Decline and Brain Atrophy in a Randomized Controlled Trial in Behavioral Variant Frontotemporal Dementia” (Journal of Alzheimer's Disease, 2020)
Like-named read-outs stand apart in the source and are kept apart here.

Experiments:
[1] = test system: bvFTD patients; assay: UPDRS Part III motor safety outcome, 52-week Phase III trial; type: in vivo, human
Procedure: The primary analyses were specified as a mixed model, repeated-measures analysis with an unstructured covariance matrix and no imputation for missing data. The model included visit (three levels corresponding to assessments at weeks 16, 32, and 52), treatment group (two levels, 4 mg or 100 mg twice a day), a visit by treatment group interaction term, use of AD-labelled medications (two levels, using or not using), geographic region (three levels: North America, Asia/Australia, Europe), and baseline value of the variable analyzed. The individual comparisons were implemented through contrasts. The Bonferroni-Holm correction was used to take account of multiplicity arising from alternative co-primary outcomes (FAQ and whole brain atrophy). We used the same method for all secondary analyses in predefined gated sequences such that no further adjustment of alpha (0.05) was needed.
Blood samples for assessment of parent MT, N-desmethyl MT, and total MT (sum of parent MT and a labile LMT conjugate), were collected from each patient on the first treatment visit (two samples: pre-dose and approximately 3.5 h after the dose) and at each subsequent on-treatment visit. […] MT levels in plasma were measured using liquid chromatography-tandem mass spectrometry assay. […] Model development and estimation of steady state maximum plasma concentration (Cmax,ss) were determined independently by the Institute of Clinical Pharmacodynamics (ICPD, NY, USA). Cmax,ss estimates using a model validated in Phase I studies were based on in-clinic plasma concentration data obtained on Day 1 when the dose-sampling interval was accurately recorded. […] Change in ACE-R, ACE-III, FAQ, MMSE, Modified-CGIC, FRS, whole brain volume (WBV), lateral ventricular volume (LVV), and frontotemporal volume (FTV), as well as UPDRS Part III, were expressed as a function of Cmax,ss estimates grouped into four groups described in the results section. […]

[2] = test system: bvFTD patients; assay: Safety: treatment emergent adverse events, Safety Population; conditions: for deaths: none judged related to treatment
From the text: Patients were monitored throughout the study for adverse events, including use of clinical laboratory tests (including measurement of methaemoglobin by pulse CO-oximetry), physical and neurological examinations, and 12-lead electrocardiograms (ECG) at all clinic visits (screening, baseline, and weeks 2, 16, 32, 52, and 56). The Unified Parkinson’s Disease Rating Scale Part III (UPDRS) [58] was included as a motor safety outcome measure requested by a regulatory agency, as was the Columbia-Suicide Severity Rating Scale (C-SSRS) [59], which were assessed at all visits. Patients were also systematically monitored for potential serotonin syndrome using a rating scale derived from four published diagnostic criteria [60], because of a theoretical potential for serotonin syndrome [61]. By protocol, amyloid related imaging abnormalities (ARIA), serotonin toxicity, and suicidality were to be reported as serious adverse events for expedited reporting.

[3] = Population PK: plasma-modeled parent MT Cmax,ss; type: in vivo, human; conditions: for Cmax: both sexes, human, plasma, oral
Procedure: Blood samples for assessment of parent MT, N-desmethyl MT, and total MT (sum of parent MT and a labile LMT conjugate), were collected from each patient on the first treatment visit (two samples: pre-dose and approximately 3.5 h after the dose) and at each subsequent on-treatment visit. The protocol specified that PK plasma sampling was to be conducted only at sites with adequate facilities (i.e., a refrigerated centrifuge and adequate capability to freeze samples reliably). Blinded analyses were conducted at the University of Aberdeen GLP Test Facility. MT levels in plasma were measured using liquid chromatography-tandem mass spectrometry assay. The method was validated for use in the Phase III studies over the range 0.2 to 10 ng/ml. […] Model development and estimation of steady state maximum plasma concentration (Cmax,ss) were determined independently by the Institute of Clinical Pharmacodynamics (ICPD, NY, USA). Cmax,ss estimates using a model validated in Phase I studies were based on in-clinic plasma concentration data obtained on Day 1 when the dose-sampling interval was accurately recorded. The percentage of patients with Day 1 exposure levels below the lower calibration limit of the assay was used to define a proxy for placebo in post-hoc binary statistical comparisons of patients with low and high exposure to the drug with a view to informing the design of a future placebo-controlled trial. Change in ACE-R, ACE-III, FAQ, MMSE, Modified-CGIC, FRS, whole brain volume (WBV), lateral ventricular volume (LVV), and frontotemporal volume (FTV), as well as UPDRS Part III, were expressed as a function of Cmax,ss estimates grouped into four groups described in the results section. Cmax,ss values outside 3x the interquartile range were excluded from determination of concentration-response relationships, but were included in inferential statistical analyses.

[4] = test system: bvFTD patients; assay: MMSE, 52-week Phase III trial; type: in vivo, human
From the text: The two doses were provided in identical blister packages as visually identical oral tablets to be taken for up to 52 weeks. The primary outcome was the Addenbrookes Cognitive Examination – Revised (ACE-R). The Functional Activities Questionnaire (FAQ) and reduction in progression of whole brain atrophy were alternative co-primary outcomes. Other outcomes included: Modified Alzheimer’s Disease Cooperative Study – Clinical Global Impression of Change (Modified-CGIC) determined by a third independent rater; Frontotemporal Dementia Rating Scale (FRS); MMSE (from MMSE items incorporated into ACE-R); Addenbrookes Cognitive Examination – III (a revised version of ACE-R which excludes MMSE items subject to copyright restrictions); change in brain volume measured by MRI in frontal and temporal lobes (FTV) and lateral ventricles (LVV); and the effect of hydromethylthionine in patients with known genetic mutations associated with bvFTD. Blood was collected prospectively for the purpose of population PK analyses.
The primary analyses were specified as a mixed model, repeated-measures analysis with an unstructured covariance matrix and no imputation for missing data. […]

[5] = 8 mg/day (n = 110), modeled change from baseline at 52 weeks
[6] = 200 mg/day (n = 104) vs 8 mg/day, 52 weeks
[7] = 8 mg/day (n = 110), Safety Population
[8] = 200 mg/day (n = 108), Safety Population

CN(C)c1ccc2c(c1)Sc1cc(N(C)C)ccc1N2 [hydromethylthionine, leuco-methylthioninium bis(hydromethanesulphonate)]
UPDRS – part III: Decline±SEM for LMTM 8 mg/day group [1, 5]: 3.90±1.06
reduction in decline, UPDRS ([1]; 8 mg/day, plasma levels above vs below […] threshold): 75%
UPDRS – part III: Difference±SEM from LMTM 8 mg/day for 200 mg/day [1, 6]: –1.40±1.61
patients with TEAEs judged by the Investigator to be related to study drug ([2]; 8 mg/day): 30%
patients with a TEAE resulting in a dose reduction, interruption, or withdrawal of study drug ([2]; 8 mg/day): 15 [14%]
patients with at least one severe TEAE ([2]; 8 mg/day): 13 (12%)
subjects with myoclonus reported as an AE ([2]; 8 mg/day): 2
withdrawal rate over 12 months ([2]; 8 mg/day): 15%
Number (%) of Patients Reporting at Least One Adverse Event (TEAE) [2, 7]: 88 (80%)
Number (%) of patients with TEAE: Agitation [2, 7]: 9 (8.2%)
Number (%) of patients with TEAE: Blood folate decreased [2, 7]: 6 (5.5%)
Number (%) of patients with TEAE: Cough [2, 7]: 7 (6.4%)
Number (%) of patients with TEAE: Diarrhea [2, 7]: 9 (8.2%)
Number (%) of patients with TEAE: Dysuria [2, 7]: 0
Number (%) of patients with TEAE: Fall [2, 7]: 10 (9.1%)
Number (%) of patients with TEAE: Folate deficiency [2, 7]: 2 (1.8%)
Number (%) of patients with TEAE: Gastrointestinal disorders [2, 7]: 28 (25.5%)
Number (%) of patients with TEAE: Headache [2, 7]: 8 (7.3%)
Number (%) of patients with TEAE: Infections and infestations [2, 7]: 38 (34.5%)
Number (%) of patients with TEAE: Injury, poisoning and procedural complications [2, 7]: 18 (16.4%)
Number (%) of patients with TEAE: Insomnia [2, 7]: 3 (2.7%)
Number (%) of patients with TEAE: Investigations [2, 7]: 17 (15.5%)
Number (%) of patients with TEAE: Metabolism and nutrition disorders [2, 7]: 12 (10.9%)
Number (%) of patients with TEAE: Nasopharyngitis [2, 7]: 8 (7.3%)
Number (%) of patients with TEAE: Pollakiuria [2, 7]: 3 (2.7%)
Number (%) of patients with TEAE: Psychiatric disorders [2, 7]: 29 (26.4%)
Number (%) of patients with TEAE: Renal and urinary disorders [2, 7]: 25 (22.7%)
Number (%) of patients with TEAE: Respiratory, thoracic and mediastinal disorders [2, 7]: 12 (10.9%)
Number (%) of patients with TEAE: Urinary incontinence [2, 7]: 13 (11.8%)
Number (%) of patients with TEAE: Urinary tract infection [2, 7]: 13 (11.8%)
Number (%) of patients with TEAE: Vomiting [2, 7]: 5 (4.5%)
Number (%) of patients with TEAE: White blood cells urine positive [2, 7]: 1 (0.9%)
Number (%) of Patients Reporting at Least One Adverse Event (TEAE) ([2]; 8 mg/day (n = 110), Safety Population, listed as Hydromethylthionine): 88 (80.0%)
frequency of renal and urinary disorders ([2]; 8 mg/day, above-threshold plasma levels): 26%
frequency of renal and urinary disorders ([2]; 8 mg/day, below-threshold plasma levels): 18%
deaths ([2]; 8 mg/day): 1
patients with TEAEs judged by the Investigator to be related to study drug ([2]; 200 mg/day): 56%
patients with a TEAE resulting in a dose reduction, interruption, or withdrawal of study drug ([2]; 200 mg/day): 35 [32%]
patients with at least one severe TEAE ([2]; 200 mg/day): 17 (16%)
subjects with myoclonus reported as an AE ([2]; 200 mg/day): 1
withdrawal rate over 12 months ([2]; 200 mg/day): 38%
Number (%) of Patients Reporting at Least One Adverse Event (TEAE) [2, 8]: 103 (95.4%)
Number (%) of patients with TEAE: Agitation [2, 8]: 9 (8.3%)
Number (%) of patients with TEAE: Blood folate decreased [2, 8]: 9 (8.3%)
Number (%) of patients with TEAE: Cough [2, 8]: 2 (1.9%)
Number (%) of patients with TEAE: Diarrhea [2, 8]: 24 (22.2%)
Number (%) of patients with TEAE: Dysuria [2, 8]: 6 (5.6%)
Number (%) of patients with TEAE: Fall [2, 8]: 13 (12.0%)
Number (%) of patients with TEAE: Folate deficiency [2, 8]: 6 (5.6%)
Number (%) of patients with TEAE: Gastrointestinal disorders [2, 8]: 42 (38.9%)
Number (%) of patients with TEAE: Headache [2, 8]: 5 (4.6%)
Number (%) of patients with TEAE: Infections and infestations [2, 8]: 34 (31.5%)
Number (%) of patients with TEAE: Injury, poisoning and procedural complications [2, 8]: 16 (14.8%)
Number (%) of patients with TEAE: Insomnia [2, 8]: 7 (6.5%)
Number (%) of patients with TEAE: Investigations [2, 8]: 34 (31.5%)
Number (%) of patients with TEAE: Metabolism and nutrition disorders [2, 8]: 14 (13.0%)
Number (%) of patients with TEAE: Nasopharyngitis [2, 8]: 7 (6.5%)
Number (%) of patients with TEAE: Nervous system disorders [2, 8]: 27 (25.0%)
Number (%) of patients with TEAE: Pollakiuria [2, 8]: 10 (9.3%)
Number (%) of patients with TEAE: Psychiatric disorders [2, 8]: 31 (28.7%)
Number (%) of patients with TEAE: Renal and urinary disorders [2, 8]: 28 (25.9%)
Number (%) of patients with TEAE: Respiratory, thoracic and mediastinal disorders [2, 8]: 8 (7.4%)
Number (%) of patients with TEAE: Urinary incontinence [2, 8]: 9 (8.3%)
Number (%) of patients with TEAE: Urinary tract infection [2, 8]: 14 (13.0%)
Number (%) of patients with TEAE: Vomiting [2, 8]: 9 (8.3%)
Number (%) of patients with TEAE: White blood cells urine positive [2, 8]: 6 (5.6%)
deaths ([2]; 200 mg/day): 3
serotonin syndrome reported as an AE ([2]; both doses, 20-item structured examination): No subject had serotonin syndrome reported as an AE
Plasma-modeled parent MT Cmax,ss, Range ([3]; 200 mg/day): 6.800 to 14.235 ng/mL
plasma levels at 200 mg/day relative to the highest level seen at 8 mg/day ([3]; 80 patients receiving 200 mg/day): 16 fold
Cmax ([3]; 8 mg/day, 8 mg/day – Group 1, read-out: Plasma-modeled parent MT Cmax,ss, Mean (SD)): 0.321 ng/mL
Cmax ([3]; 8 mg/day, 8 mg/day – Group 1, read-out: Plasma-modeled parent MT Cmax,ss, Range): 0.281 to 0.346 ng/mL
Cmax ([3]; 8 mg/day, 8 mg/day – Group 2, read-out: Plasma-modeled parent MT Cmax,ss, Mean (SD)): 0.355 ng/mL
Cmax ([3]; 8 mg/day, 8 mg/day – Group 2, read-out: Plasma-modeled parent MT Cmax,ss, Range): 0.346 to 0.372 ng/mL
Cmax ([3]; 8 mg/day, 8 mg/day – Group 3, read-out: Plasma-modeled parent MT Cmax,ss, Mean (SD)): 0.387 ng/mL
Cmax ([3]; 8 mg/day, 8 mg/day – Group 3, read-out: Plasma-modeled parent MT Cmax,ss, Range): 0.373 to 0.409 ng/mL
Cmax ([3]; 8 mg/day, 8 mg/day – Group 4, read-out: Plasma-modeled parent MT Cmax,ss, Mean (SD)): 0.47 ng/mL
Cmax ([3]; 8 mg/day, 8 mg/day – Group 4, read-out: Plasma-modeled parent MT Cmax,ss, Range): 0.413 to 0.583 ng/mL
Cmax ([3]; 200 mg/day, read-out: Plasma-modeled parent MT Cmax,ss, Mean (SD)): 9.04 ng/mL
Cmax ([3]; 200 mg/day, read-out: Plasma-modeled parent MT Cmax,ss, Range): 6.8 to 14.2 ng/mL
MMSE: Decline±SEM for LMTM 8 mg/day group [4, 5]: –3.41±0.53
MMSE: Difference±SEM from LMTM 8 mg/day for 200 mg/day [4, 6]: –0.12±0.80
